Source: patent US20170223953A1, “MICROBICIDAL COMPOSITION” (Dow Global Technologies LLC, priority 2016, published 2017)

Tested on: Desulfovibrio longus ATCC 51456
Test: Biocidal efficacy (complete bacterial kill in 2 hours) and Synergy Index against anaerobic sulfate-reducing bacteria
Assay type: cell-based
Conditions: 35° C.
Protocol: Surfactants and biocides were evaluated for synergy by determining the synergy index (S.I.) of the combination. Synergy index was calculated based on the concentration required to achieve a certain level of bacterial kill when the two antimicrobial compounds (A and B) are used alone and in combinations. The tests organisms were anaerobic sulfate-reducing bacteria (Desulfovibrio longus ATCC #51456). Inside an anaerobic chamber (Bactron anaerobic chamber), a deoxygenated sterile salt solution (3.1183 g of NaCl, 1.3082 mg of NaHCO3, 47.70 mg of KCl, 72.00 mg of CaCl2, 54.49 mg of MgSO4, 172.28 mg of Na2SO4, 43.92 mg of Na2CO3 in 1 L water) was inoculated with Desulfovibrio longus ATCC 51456 to a final bacterial concentration of 10^6 to 10^7 CFU/mL. Aliquots of this cell suspension were then treated with glutaraldehyde, and each of Surf A and B at selected active concentrations. After incubation at 35° C. for 2 hours, viable bacteria in the aliquots were enumerated using serial dilution method. […] SI is calculated as follows: Ca/CA+Cb/CB=Synergy Index (“SI”) Wherein: • Ca=Concentration of biocide A required to achieve a certain level of bacterial kill when used in combination with B • CA=Concentration of biocide A required to achieve a certain level of bacterial kill when used alone • Cb=Concentration of biocide B required to achieve a certain level of bacterial kill when used in combination with A • CB=Concentration of biocide B required to achieve a certain level of bacterial kill when used alone When the sum of Ca/CA and Cb/CB is greater than one, antagonism is indicated.

For O=CCCCC=O [Glut, glutaraldehyde], the “Concentration (active ppm) for complete bacterial kill in 2 hours, Glut” value (“Concentration (active ppm)” below) (Table 1, Glut alone or in combination with Surf. A, 10^6 to 10^7 CFU/mL) was 8.8 active ppm, the “Concentration (active ppm)” value (Table 2, Glut alone or in combination with Surf. B) was 19.8 active ppm and the “Concentration (active ppm)” value (Table 3, Glut alone or in combination with Surf. C) was 19.8 active ppm.
